# Data: article PMC8037814, “Polymorphic Characterization, Pharmacokinetics, and Anti-Inflammatory Activity of Ginsenoside Compound K Polymorphs” (Molecules, 2021)
# Where “and” joins values, the source holds several entries; their conditions need not be identical. Equal entries are not always repeated. Where two headings read alike, the source gives them in different places.
# Experiments:
# [1] = Pharmacokinetics after oral administration of CK polymorphs in rats (20 mg/kg); assay type: in vivo, Sprague-Dawley rats; settings: p.o. 20 mg/kg, individual rats 1-3
# Experimental: All samples were analyzed with a triple quadrupole LC-MS/MS (API 4000 LC-MS/MS, AB Sciex, Framingham, MA, USA) coupled with an Agilent 1200 HPLC system (Agilent Technologies, Palo Alto, CA, USA). The MS was equipped with an electrospray system (ESI). The N2 gas temperature and ion-spray voltage were set to 550 °C and 4.5 kV, respectively. CK was measured in multiple reaction monitoring (MRM) mode using a negative electrospray ionization source at m/z 667.4 → 621.2 for CK (CID 25.6 v) and m/z 271.2 → 228.8 for internal standard (IS, (E)-5-(4-fluorostyryl)-2-isopropylbenzene-1,3-diol, Welichem Biotech Inc., Wayburne Drive Burnaby, BC, Canada) (CID 28.3 v) with a dwell time of 0.1 s.
# Rats were divided randomly into 5 groups of six animals each (sex in half) and given 7 days to acclimatize to the facility before the experiments began. The four forms of CK were suspended in 0.5% sodium carboxymethyl cellulose (CMC-Na) solution and orally administered to rats at a dose of 20 mg/kg. A CK solution in a mixed solvent of dimethyl sulfoxide (DMSO)/castor oil/physiologic saline (3:5:92, v/v) was intravenously administered to the remaining group via the tail vein at a dose of 10 mg/kg. Blood samples were collected by retro-orbital puncture at the following times: 0.167, 0.333, 0.667, 1, 2, 3, 4, 6, 9, 12, and 24 h for the oral administration, and at 0.0083, 0.05, 0.133, 0.25, 0.5, 1, 2, 4, 6, and 9 h for the intravenous administration. Plasma samples were obtained by centrifuging a heparinized blood tube at 4000 rpm for 5 min and then stored at −70 °C until analysis.
# The procedure for drug extraction from plasma samples was as follows: 0.2 mL acetonitrile, 0.2 mL plasma sample, and 10 μL IS (1 µg/mL) were added into a 1.5 mL Eppendorf-type tube. This mixture was vortexed for 1 min and then treated with 0.8 mL of methyl tert-butyl ether (MTBE) to precipitate the plasma proteins. After a mechanical vortex for 1 min and subsequent centrifugation (4000 rpm, 5 min), 0.8 mL of the supernatant was transferred and blow-dried with N2 at 40 °C in a water bath. Finally, the residue was dissolved in 120 μL of mobile phase, and then 10 μL was subjected to HPLC for analysis. […] Intra- and inter-day precision and accuracy never exceeded 15% by analyzing six replicate samples.
# The CK pharmacokinetic parameters in rats, including the area under the curve (AUC(0–t) and AUC(0–∞)), mean residence time (MRT(0–t) and MRT(0–∞)), maximum concentration (Cmax), time to maximum concentration (Tmax), half-life (t1/2), apparent distribution volume (V), and total plasma clearance (CL), were derived from plasma concentration-time curves by using non-compartmental analysis (NCA) with DAS 2.0 software (Drug And Statistics, Mathematical Pharmacology Professional Committee of China, Shanghai, China). The absolute bioavailability (Fabs) was calculated from the dose-adjusted ratio of AUCp.o. to AUCi.v.. One-way analysis of variance (ANOVA) by SPSS 11.5 (SPSS Inc., Chicago, IL, USA) was conducted to compare the primary PK parameters.
# [2] = tested on: carrageenan-induced acute paw inflammation; experiment: Paw swelling test induced by carrageenan in rats; assay type: in vivo, Sprague-Dawley rats; design: paw volume: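 right hind paw volume measured with a plethysmometer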; settings: for paw volume / paw edema: mean±SD of 6 rats; for edema inhibition: versus model group
# Experimental: Rats were divided into 11 groups of six animals each (sex in half): the normal group, the model group, indomethacin group (1 mg/kg), and form I, II, III, IV groups (each form set 10 mg/kg and 20 mg/kg groups, respectively). Indomethacin and CK were ground and suspended in 0.5% CMC-Na solution. […] The same volume of saline was injected into the normal group. […] Paw edema and inhibitory rate were calculated as the following formula, and the differences among groups were compared with the t-test. Paw edema (%) = (Vn − V0)/V0 × 100%. Vn: paw volume at different time intervals after carrageenan injection. V0: paw volume before carrageenan injection. Inhibitory rate (%) = (Em − Ee)/Em × 100%. Em: paw edema of the model group. Ee: paw edema of the experimental group.
# [3] = DSC thermal analysis of CK polymorphs; assay type: physicochemical; settings: 20 K/min from 20 to 400 °C, dry nitrogen flow
# Experimental: DSC measurements were performed on a DSC204 Phoenix calorimeter (NETZSCH, Selb, Germany) with a heating rate of 20 K/min from 20 to 400 °C. The dry nitrogen flow was about 50 mL/min. Data were analyzed using NETZSCH analysis software.
# [4] = Pharmacokinetics after oral administration of CK polymorphs in rats (20 mg/kg); assay type: in vivo, Sprague-Dawley rats; settings: for Fabs (absolute bioavailability): p.o. 20 mg/kg vs i.v. 10 mg/kg, dose-adjusted AUC ratio; for Tmax / t1/2z / AUC(0–t) / AUC(0–∞) / CLz/F / Cmax / Vz/F: 20 mg/kg
# [5] = 10 mg/kg p.o. qd 3 days, 3h after carrageenan, listed as From IV
# [6] = 10 mg/kg p.o. qd 3 days, 4h after carrageenan, listed as From IV
# [7] = 10 mg/kg p.o. qd 3 days, 5h after carrageenan, listed as From IV
# [8] = 10 mg/kg p.o. qd 3 days, 6h after carrageenan, listed as From IV
# [9] = 20 mg/kg p.o. qd 3 days, 3h after carrageenan, listed as From IV
# [10] = 20 mg/kg p.o. qd 3 days, 4h after carrageenan, listed as From IV
# [11] = 20 mg/kg p.o. qd 3 days, 5h after carrageenan, listed as From IV
# [12] = 20 mg/kg p.o. qd 3 days, 6h after carrageenan, listed as From IV
# [13] = female rats, p.o. 20 mg/kg, individual rats 1-3
# [14] = female rats, p.o. 20 mg/kg, mean ± SD (n = 3)
# [15] = male rats, p.o. 20 mg/kg, mean ± SD (n = 3)
# [16] = 1 mg/kg p.o. qd 3 days, 3h after carrageenan
# [17] = 1 mg/kg p.o. qd 3 days, 4h after carrageenan
# [18] = 1 mg/kg p.o. qd 3 days, 5h after carrageenan
# [19] = 1 mg/kg p.o. qd 3 days, 6h after carrageenan
smiles,measurement,setting,value
"CC(C)=CCCC(C)(OC1OC(CO)C(O)C(O)C1O)C1CCC2(C)C1C(O)CC1C3(C)CCC(O)C(C)(C)C3CCC12C [Form IV, 20-O-β-D-glucopyranosyl-20(S)-protopanaxadiol]",AUC(0-t),[1]; female rats,1818.83 µg·h/L and 1232.02 µg·h/L and 885.16 µg·h/L
same,AUC(0-∞),[1]; female rats,897.84 µg·h/L and 1828.44 µg·h/L and 1234.21 µg·h/L
same,CLz/F,[1]; female rats,22.28 L/h/kg and 10.94 L/h/kg and 16.21 L/h/kg
same,Cmax,[1]; female rats,122.10 µg/L and 340.98 µg/L and 193.16 µg/L
same,Vz/F,[1]; female rats,116.76 L/kg and 47.28 L/kg and 56.79 L/kg
same,AUC(0-t),[1]; male rats,540.26 µg·h/L and 711.78 µg·h/L and 1023.81 µg·h/L
same,AUC(0-∞),[1]; male rats,603.16 µg·h/L and 720.70 µg·h/L and 1028.47 µg·h/L
same,CLz/F,[1]; male rats,33.16 L/h/kg and 27.75 L/h/kg and 19.45 L/h/kg
same,Cmax,[1]; male rats,115.38 µg/L and 116.79 µg/L and 267.12 µg/L
same,t1/2z,[1]; male rats,3.99 h and 3.07 h and 3.39 h
same,paw volume,"[2]; 10 mg/kg p.o. qd 3 days, 0h (before carrageenan), listed as From IV",1.60±0.05
same,paw edema,[2]; [5],63.73±8.98%
same,paw volume,[2]; [5],2.62±0.13
same,paw edema,[2]; [6],60.32±7.19%
same,paw volume,[2]; [6],2.57±0.10
same,paw edema,[2]; [7],40.95±1.48%
same,paw volume,[2]; [7],2.26±0.05
same,edema inhibition,[2]; [7],18.24%
same,paw edema,[2]; [8],30.95±10.46%
same,paw volume,[2]; [8],2.09±0.10
same,edema inhibition,[2]; [8],13.86%
same,paw volume,"[2]; 20 mg/kg p.o. qd 3 days, 0h (before carrageenan), listed as From IV",1.62±0.05
same,paw edema,[2]; [9],63.17±8.40%
same,paw volume,[2]; [9],2.64±0.16
same,paw edema,"[2]; 20 mg/kg p.o. qd 3 days, 4h after carrageenan",58.6 ± 3.6%
same,paw edema,[2]; [10],58.65±3.69%
same,paw volume,[2]; [10],2.57±0.09
same,paw edema,[2]; [11],39.21±10.18%
same,paw volume,[2]; [11],2.26±0.13
same,edema inhibition,[2]; [11],21.72%
same,paw edema,[2]; [12],31.27±12.96%
same,paw volume,[2]; [12],2.13±0.15
same,edema inhibition,[2]; [12],12.98%
same,"paw edema, difference from the model group",[2]; any time point post carrageenan injection,no statistical difference
same,DSC onset of the decomposition endotherm (thermodynamical stability),[3],250.2 °C
same,Fabs (absolute bioavailability),[4]; female rats,4.07%
same,Tmax,[4]; [13],3.00 h
same,t1/2z,[4]; [13],3.63 h and 3.00 h and 2.43 h
same,AUC(0–t),[4]; [14],1312.0 ± 471.95 µg·h/L
same,AUC(0–∞),[4]; [14],1320.17 ± 471.22 µg·h/L and 1320.2 ± 471.22 µg·h/L
same,CLz/F,[4]; [14],16.47 ± 5.67 L/h/kg and 16.5 ± 5.67 L/h/kg
same,Cmax,[4]; [14],218.75 ± 111.66 µg/L and 218.8 ± 111.7 µg/L
same,Tmax,[4]; [14],2.3 ± 0.58 h
same,Vz/F,[4]; [14],73.61 ± 37.67 L/kg and 73.6 ± 37.7 L/kg
same,t1/2z,[4]; [14],3.02 ± 0.60 h and 3.0 ± 0.60 h
same,Tmax,"[4]; female, Sprague-Dawley, rat, plasma, po, female rats, p.o. 20 mg/kg, mean ± SD (n = 3), read-out: Tmax",2.33 ± 0.58 h
same,Fabs (absolute bioavailability),[4]; male rats,2.59%
same,Vz/F,"[4]; male rats, p.o. 20 mg/kg, individual rats 1-3",162.18 L/kg and 159.92 L/kg and 86.19 L/kg
same,AUC(0–t),[4]; [15],758.62 ± 245.16 µg·h/L
same,AUC(0–∞),[4]; [15],784.11 ± 219.63 µg·h/L
same,CLz/F,[4]; [15],26.79 ± 6.91 L/h/kg and 26.8 ± 6.91 L/h/kg
same,Cmax,[4]; [15],166.43 ± 87.20 µg/L and 166.4 ± 87.20 µg/L
same,Vz/F,[4]; [15],136.10 ± 43.24 L/kg and 136 ± 43.2 L/kg
same,t1/2z,[4]; [15],3.48 ± 0.47 h and 3.5 ± 0.47 h
same,decrease in the bioavailability from form I to form IV,"[4]; rats, p.o. 20 mg/kg",34%
"COc1ccc2c(c1)c(CC(=O)O)c(C)n2C(=O)c1ccc(Cl)cc1 [Indomethacin, indomethacin, reference compound]",paw volume,"[2]; 1 mg/kg p.o. qd 3 days, 0h (before carrageenan)",1.60±0.13
same,paw edema,[2]; [16],48.00±18.21%
same,paw volume,[2]; [16],2.35±0.15
same,edema inhibition,[2]; [16],25.32%
same,paw edema,[2]; [17],43.75±15.39%
same,paw volume,[2]; [17],2.28±0.12
same,edema inhibition,[2]; [17],29.85%
same,paw edema,[2]; [18],30.74±10.87%
same,paw volume,[2]; [18],2.08±0.15
same,edema inhibition,[2]; [18],40.61%
same,paw edema,[2]; [19],23.41±9.18%
same,paw volume,[2]; [19],1.97±0.12
same,edema inhibition,[2]; [19],40.46%
